Experimental data taken from the NIST ThermoML archive (doi:10.1016/j.jct.2018.05.027).

Legend:
[1] = Liquid
[2] = xn = mol fraction of the nth substance listed; settings: Liquid, Vibrating wire viscometry, x1 = 1

CCC(C)O (centres undefined) [butan-2-ol]
viscosity [mPa·s], [1]
Settings | 293.15 K | 298.15 K | 313.15 K | 333.15 K | 353.15 K
100 kPa, Concentric cylinders viscometry | 3.744 | – | 1.832 | 1.011 | 0.6218
100 kPa, Vibrating wire viscometry | 3.767 | 3.102 | 1.839 | 1.007 | 0.6198
1000 kPa, Vibrating wire viscometry | 3.813 | 3.123 | 1.862 | 1.023 | 0.6273
5000 kPa, Vibrating wire viscometry | 3.978 | 3.28 | 1.947 | 1.078 | 0.6577
10000 kPa, Vibrating wire viscometry | 4.235 | 3.462 | 2.041 | 1.133 | 0.6999
20000 kPa, Vibrating wire viscometry | 4.696 | 3.873 | 2.262 | 1.254 | 0.7717
30000 kPa, Vibrating wire viscometry | 5.159 | 4.253 | 2.503 | 1.372 | 0.8354
40000 kPa, Vibrating wire viscometry | 5.693 | 4.697 | 2.734 | 1.491 | 0.9088
50000 kPa, Vibrating wire viscometry | 6.274 | 5.142 | 2.99 | 1.624 | 0.9898
60000 kPa, Vibrating wire viscometry | 6.831 | 5.553 | 3.237 | 1.759 | 1.07
70000 kPa, Vibrating wire viscometry | 7.377 | 6.044 | 3.558 | 1.905 | 1.151
80000 kPa, Vibrating wire viscometry | 8.056 | 6.544 | 3.841 | 2.081 | 1.242
100000 kPa, Vibrating wire viscometry | 9.598 | 7.646 | 4.456 | 2.427 | 1.444
120000 kPa, Vibrating wire viscometry | 11.31 | 9.053 | 5.179 | 2.716 | 1.644
140000 kPa, Vibrating wire viscometry | 13.38 | 10.43 | 5.933 | 3.099 | 1.845

CCC(C)O (centres undefined) [butan-2-ol] + Cc1ccc(C)c(C)c1
viscosity [mPa·s], [2]
Settings | 293.15 K | 298.15 K | 313.15 K | 333.15 K | 353.15 K
100 kPa | 3.767 | 3.102 | 1.839 | 1.007 | 0.6198
1000 kPa | 3.813 | 3.123 | 1.862 | 1.023 | 0.6273
5000 kPa | 3.978 | 3.28 | 1.947 | 1.078 | 0.6577
10000 kPa | 4.235 | 3.462 | 2.041 | 1.133 | 0.6999
20000 kPa | 4.696 | 3.873 | 2.262 | 1.254 | 0.7717
30000 kPa | 5.159 | 4.253 | 2.503 | 1.372 | 0.8354
40000 kPa | 5.693 | 4.697 | 2.734 | 1.491 | 0.9088
50000 kPa | 6.274 | 5.142 | 2.99 | 1.624 | 0.9898
60000 kPa | 6.831 | 5.553 | 3.237 | 1.759 | 1.07
70000 kPa | 7.377 | 6.044 | 3.558 | 1.905 | 1.151
80000 kPa | 8.056 | 6.544 | 3.841 | 2.081 | 1.242
100000 kPa | 9.598 | 7.646 | 4.456 | 2.427 | 1.444
120000 kPa | 11.31 | 9.053 | 5.179 | 2.716 | 1.644
140000 kPa | 13.38 | 10.43 | 5.933 | 3.099 | 1.845
